From PubChem BioAssay AID651717 (Broad Institute, 2012)

Test system: mESC Bmi1-luciferase reporter, firefly/renilla ratio, 24 h
Assay: compounds raising Bmi1 reporter signal – mouse embryonic stem cells, luciferase, cherry-pick, esBAF inhibitor project, dose response (AID 651717);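 also: luciferase knocked into Bmi1 locus with EF-1a renilla as cell number control; rising ratio signals esBAF inhibition which derepresses Bmi1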

Q: For `O=C(NCc1ccccn1)Nc1ccc(Br)cc1Cl`, which AC40 is on record?
A: 2.68 µM

Q: Which AC40 does the source give for `c1ccc(-c2csc(Nc3cccnc3)n2)nc1` here?
A: 4.74 µM

Q: Which AC40 does the source give for `COc1ccc(-c2cc(C(=O)N3CCCC3)no2)cc1OC` here?
A: 7.36 µM

Q: With `O=C(N/N=C/c1ccc(Cl)cc1)Nc1ccccc1` as the molecule, how does the AC40 read?
A: 5.34 µM

Q: For `O=C(CN1CCCCC1)Nc1nc(-c2ccccc2)cs1`, which AC40 is on record?
A: 11.5 µM

Q: `COc1ccccc1CNC(=O)C[C@H]1CC[C@@H]2[C@H](COC[C@H](O)CN2C(=O)Nc2ccc(Cl)cc2)O1` was tested. Which AC40 did it give?
A: 14.1 µM

Q: `O=C(NC1CCCCC1)N1CCc2ccccc2C1` was tested. Which AC40 did it give?
A: 6.76 µM

Q: `O=C1NCCC/C1=N/Nc1cc(F)ccc1F` was tested. Which AC40 did it give?
A: 2.6 µM

Q: With `CCN(C(=O)CN1C(=O)S/C(=C\C=C\c2ccccc2)C1=O)C1CCS(=O)(=O)C1` (stereo unspecified) as the molecule, how does the AC40 read?
A: 3.85 µM

Q: With `Cn1cccc1C(=O)NC1CCCCCC1` as the molecule, how does the AC40 read?
A: 3.74 µM

Q: With `CSc1cccc(NC(=O)N2CCc3ccc(NC(=O)c4ccccn4)cc3C2)c1` as the molecule, how does the AC40 read?
A: 4.23 µM

Q: How did the AC40 turn out when `Cc1ccc(/C(N)=N/OC(=O)CCc2ccccc2)cc1` was run?
A: 11 µM

Q: How did the AC40 turn out when `O=C(c1cc(-c2ccc(Cl)cc2)on1)N1CCN(c2ccccc2)CC1` was run?
A: 6.4 µM

Q: `O=C1CCN(Cc2ccccc2)CCN1CCSc1ccccc1` was tested. Which AC40 did it give?
A: 3.08 µM

Q: `COc1cccc(OCc2cc(C(=O)N(C)C3CCCCC3)no2)c1` was tested. Which AC40 did it give?
A: 4.53 µM

Q: For `CNC(=O)c1ccc(-c2cc3onc(-c4ccccc4)c3c(=O)n2C)cc1`, which AC40 is on record?
A: 1.16 µM

Q: How did the AC40 turn out when `CCn1c(COc2ccc(OC)cc2)nc2ccccc21` was run?
A: 2.81 µM

Q: With `CC(=O)Nc1ccc(CNc2nc3cc(-c4ccc(F)cc4)sc3c(=O)n2C)cc1` as the molecule, how does the AC40 read?
A: 1.69 µM

Q: For `COc1ccc(NC(=O)c2cc(-c3cccs3)on2)cc1`, which AC40 is on record?
A: 3.06 µM

Q: With `CC(=O)Oc1ccc2cc(-c3ccccc3)c(=O)oc2c1` as the molecule, how does the AC40 read?
A: 4.46 µM

Q: With `COc1ccccc1-c1nc(SCc2ccccn2)n[nH]1` as the molecule, how does the AC40 read?
A: 8.67 µM

Q: Which AC40 does the source give for `CC(=O)n1nc(-c2ccccc2)nc1NCc1ccc(N(C)C)cc1` here?
A: 3.41 µM

Q: With `CCc1c(C)sc(NC(=O)c2cccs2)c1C(N)=O` as the molecule, how does the AC40 read?
A: 2.66 µM

Q: For `Cc1cccc(-c2noc(CCC(=O)N3CCN(c4cc(C)ccc4C)CC3)n2)c1`, which AC40 is on record?
A: 2.82 µM

Q: `O=C(NCCc1ccccc1)c1ccc(Cl)c(S(=O)(=O)N2CCCC2)c1` was tested. Which AC40 did it give?
A: 8.04 µM

Q: Which AC40 does the source give for `CCCC(=O)Nc1sc2c(c1C#N)CCCCC2` here?
A: 2.39 µM

Q: Which AC40 does the source give for `C=CCNc1nc(Cl)nc(Nc2ccccc2)n1` here?
A: 0.936 µM

Q: For `CC(C)Cc1cc(C(=O)Nc2ccc(Br)cc2)no1`, which AC40 is on record?
A: 2.96 µM

Q: `O=C(O)C=C1CCN(c2ncc(C(F)(F)F)cc2Cl)CC1` was tested. Which AC40 did it give?
A: 2.07 µM

Q: How did the AC40 turn out when `O=C(NCCCc1ccccc1)c1ccccc1O` was run?
A: 10.7 µM

Q: For `COc1ccccc1CNc1nc2cc(-c3sccc3C)sc2c(=O)n1C`, which AC40 is on record?
A: 6.95 µM

Q: `Cc1ccc(CNC(=O)c2ccc(Cn3cc(-c4ccc(C)cc4)nc3-c3ccncc3)cc2)cc1` was tested. Which AC40 did it give?
A: 1.77 µM

Q: How did the AC40 turn out when `CC(=O)c1ccc(NC(=O)C2CC(=O)N(Cc3ccccc3)C2)cc1` (stereo unspecified) was run?
A: 3.25 µM

Q: `O=c1cc(-c2ccccc2Cl)oc2cc(O)cc(O)c12` was tested. Which AC40 did it give?
A: 12 µM

Q: For `Cc1cc(NC(=O)CC2CCCC2)ccc1Br`, which AC40 is on record?
A: 11.8 µM

Q: For `Cc1nc(-c2ccccc2)sc1-c1nnc(C2CC2)o1`, which AC40 is on record?
A: 4.24 µM

Q: For `Cc1ccc(C(=O)Nc2ccc(Br)c(C(F)(F)F)c2)cc1`, which AC40 is on record?
A: 1.73 µM

Q: Which AC40 does the source give for `Cc1ccc(NC(=O)O/N=C/c2ccc(F)cc2)cc1` here?
A: 8.83 µM

Q: With `CC1CCN(C(=O)CCc2nnc(-c3ccccc3)o2)CC1` as the molecule, how does the AC40 read?
A: 4.2 µM

Q: `CN(C(=O)c1ccc2c(Cl)c3c(nc2c1)CCC3)c1ccccc1` was tested. Which AC40 did it give?
A: 6.63 µM

Q: Which AC40 does the source give for `CC(=Nc1ccccc1O)c1sc2ccccc2c1O` here?
A: 3.82 µM

Q: How did the AC40 turn out when `COc1cccc(N2CCN(C(=O)c3ccc4nc(N5CCCCC5)sc4c3)CC2)c1` was run?
A: 5.88 µM

Q: With `CCOC(=O)C1=C(CSc2nc(-c3ccccc3)ccc2C#N)OC(N)=C(C#N)C1c1ccc(OC)cc1` (stereo unspecified) as the molecule, how does the AC40 read?
A: 6.12 µM

Q: How did the AC40 turn out when `COc1ccc(-c2cc(C(=O)Nc3cccnc3)no2)cc1OC` was run?
A: 4.87 µM

Q: Which AC40 does the source give for `O=C(N/N=C/c1ccccc1)c1ccc(NC(=O)c2ccc(F)cc2)cc1` here?
A: 1.46 µM

Q: For `c1ccc(Nc2nc(-c3ccncc3)cs2)cc1`, which AC40 is on record?
A: 2.71 µM

Q: Which AC40 does the source give for `COc1ccc(/C=C/C(=O)Oc2cccc(/C=N/NC(=O)Cc3ccc(Br)cc3)c2)cc1` here?
A: 4.57 µM

Q: Which AC40 does the source give for `COc1cc(CNc2ccc(S(N)(=O)=O)cc2)ccc1OCc1ccccc1F` here?
A: 1.87 µM

Q: Which AC40 does the source give for `CO[C@@H]1CN(C)C(=O)c2ccc(NC(=O)Nc3ccc4c(c3)OCO4)cc2OC[C@H](C)NC[C@H]1C` here?
A: 6.56 µM

Q: Which AC40 does the source give for `Cc1sc2c(c1C)CN(C(C)(C)C)CN2C(=O)c1ccccc1` here?
A: 1.37 µM

Q: With `CCC(=O)c1ccc(N2CCC(C)CC2)c(F)c1` as the molecule, how does the AC40 read?
A: 2.04 µM

Q: With `Cc1cc(Cl)nc(NC(=O)Nc2cccc(Cl)c2)n1` as the molecule, how does the AC40 read?
A: 0.66 µM

Q: `COc1ccccc1NC(=O)Cn1nnc(-c2ccccc2NC(=O)c2cc3ccccc3oc2=O)n1` was tested. Which AC40 did it give?
A: 4.5 µM

Q: `COc1cccc(NC(=O)N2CCN(c3cccc(C)c3C)CC2)c1` was tested. Which AC40 did it give?
A: 4.88 µM

Q: Which AC40 does the source give for `CCCCN(C(=O)CSc1nnc(Nc2ccc(C)c(C)c2)s1)c1c(N)n(Cc2ccccc2)c(=O)[nH]c1=O` here?
A: 12.4 µM

Q: `Cc1cc(C)c2c(N)c(C(=O)Nc3ccccc3Br)sc2n1` was tested. Which AC40 did it give?
A: 2.16 µM

Q: With `Cc1c(C(=O)NCc2cccnc2)sc2nc(-c3ccccc3)cn12` as the molecule, how does the AC40 read?
A: 30.8 µM

Q: For `Cc1csc(-c2ccc3cc(Cl)cc(Cl)c3n2)n1`, which AC40 is on record?
A: 5.82 µM

Q: How did the AC40 turn out when `ON=C(CCc1ccccc1)c1ccccc1` was run?
A: 0.977 µM

Q: `Nc1ccc(C#Cc2ccc3c(=O)c4ccccc4oc3c2)cc1` was tested. Which AC40 did it give?
A: 3.64 µM

Q: With `COc1cc(SC)ccc1C(=O)NCC1CCCCC1` as the molecule, how does the AC40 read?
A: 3.03 µM

Q: How did the AC40 turn out when `C=CCNc1nc(NCc2cccc(OC)c2)c2sc(-c3ccccc3)cc2n1` was run?
A: 1.86 µM

Q: How did the AC40 turn out when `COc1ccc(NC(=O)O/N=C/c2ccccc2)cc1` was run?
A: 5.24 µM

Q: Which AC40 does the source give for `COc1ccc2c(c1OC)C(=O)N1c3ccccc3SC21` (stereo unspecified) here?
A: 0.438 µM

Q: How did the AC40 turn out when `COc1ccc(-c2cc3cc(OC)c(OC)cc3cn2)cc1` was run?
A: 6.22 µM

Q: For `O=C(c1cccs1)N(C(=O)c1cccs1)c1ccc(Br)cn1`, which AC40 is on record?
A: 1.09 µM

Q: How did the AC40 turn out when `COc1ccc(N=Cc2c(O)[nH]c3ccccc23)cc1OC` was run?
A: 3.05 µM

Q: For `Nc1cc2c(cc1Cl)-c1ccc(Cl)cc1C2`, which AC40 is on record?
A: 11.3 µM

Q: For `O=C(Cc1cccs1)Nc1nc2c(s1)CCCC2`, which AC40 is on record?
A: 1.66 µM

Q: How did the AC40 turn out when `COc1ccc(/C=N/Nc2nc(C)nc(N)n2)cc1` was run?
A: 15.5 µM

Q: Which AC40 does the source give for `CCCNC(=O)Nc1ccc2c(c1)C(=O)N(C)C[C@H](OC)[C@@H](C)CN(Cc1ccc(-c3ccccn3)cc1)[C@@H](C)CO2` here?
A: 14.1 µM

Q: How did the AC40 turn out when `COC(=O)c1ccc(NC(=O)c2cc3sccc3n2C)cc1` was run?
A: 6.75 µM

Q: With `O=C(CCc1ccccc1)Nc1ccc(F)cc1F` as the molecule, how does the AC40 read?
A: 7.22 µM

Q: `COC(=O)c1ccc2nc(-c3cccc(Cl)c3)c(Cc3ccsc3)n2c1` was tested. Which AC40 did it give?
A: 7.98 µM

Q: With `CCCC(=O)Nc1sc2c(c1C#N)CCCC2` as the molecule, how does the AC40 read?
A: 19 µM

Q: How did the AC40 turn out when `O=C(NC1CCCCC1)c1ccc2ccccc2c1O` was run?
A: 1.27 µM

Q: `CC(=O)Nc1cc2c3c(cccc3c1)-c1ccccc1-2` was tested. Which AC40 did it give?
A: 5.23 µM

Q: With `CCn1cnc2cc(NCc3ccc(OC)cc3)ccc21` as the molecule, how does the AC40 read?
A: 0.992 µM

Q: `CO[C@@H]1CN(C)C(=O)c2cc(NC(=O)c3nc4ccccc4s3)ccc2OC[C@@H](C)N(Cc2cccnc2)C[C@H]1C` was tested. Which AC40 did it give?
A: 19.8 µM

Q: Which AC40 does the source give for `CC(=O)Nc1cnc(-c2cc(C)c(O)c(C)c2)cn1` here?
A: 12 µM

Q: For `CO[C@H]1CN(C)C(=O)c2cc(NC(=O)NC(C)C)ccc2OC[C@H](C)N(Cc2ccc(-c3ccccn3)cc2)C[C@@H]1C`, which AC40 is on record?
A: 0.871 µM

Q: For `CN(C)c1ccc(CSc2ccccc2)cc1`, which AC40 is on record?
A: 2.77 µM

Q: Which AC40 does the source give for `COc1cc(OC)c2c(-c3cccc(/C=C/c4ccc(F)cc4)c3)cc(=O)oc2c1` here?
A: 3.49 µM

Q: How did the AC40 turn out when `O=C(COC(=O)c1cc2ccccc2oc1=O)Nc1cccc(S(=O)(=O)N2CCCCCC2)c1` was run?
A: 12.7 µM

Q: How did the AC40 turn out when `COC(=O)c1ccc(COC(=O)CNC(=O)c2ccc(OC)cc2)cc1` was run?
A: 6.87 µM

Q: Which AC40 does the source give for `Cc1ccc(Nc2nc3c(c(=O)[nH]2)CCCC3)cc1` here?
A: 8.9 µM
